In US9877981B2, “NAD biosynthesis and precursors for the treatment and prevention of cancer and proliferation” (President and Fellows of Harvard College, priority 2012, dated 2018):

Key:
Format in all cases: cell-based, mouse
PGC-1α/β KO myotubes = assay: qPCR of ETC genes in PGC-1α/β KO myotubes; conditions: for expression of nuclear- and mitochondrial-encoded genes: EX-527 48 h
Description: (§1) Primary myoblasts cells were isolated from WT, SIRT1 KO (Price et al., 2012) and PGC-1α/β KO (Zechner et al., 2010) mice as previously described (Price et al., 2012). WT and PGC-1α/β KO primary myoblasts were plated and allowed to differentiate into myotubes by replacing the media with low glucose DMEM supplemented with 2% horse serum (Sigma-Aldrich) for 4 days. After the differentiation the cells were infected with empty vector or flag-SIRT1 adenovirus as described before (Gerhart-Hines et al., 2007). Media was replaced with fresh DMEM supplemented with 2% horse serum (Sigma-Aldrich) for an additional 48 hr and, after that the cells were harvested for the different assays as described. To investigate the role of HIF-1α in genome asynchrony, PGC-1α/β KO primary myotubes were treated for 12 hours with 1 mM DMOG (Sigma) or 10 μM DFO (Sigma), 24 h after infection with empty vector of flag-SIRT1 adenovirus or after 12 h treatment with 500 mM NMN (Sigma).
(§2) RNA from skeletal muscle tissue and C2C12 cells were extracted with RNeasy mini kit (Qiagen) according to the instructions and quantified using the NanoDrop 1000 spectrophotometer (Thermo Scientific). cDNA was synthesized with the iSCRIP cDNA synthesis kit (BioRad) using 600 ng of RNA. Quantitative RT-PCR reactions were performed using 1 μM of primers and LightCycler® 480 SYBR Green Master (Roche) on an LightCycler® 480 detection system (Roche). Calculations were performed by a comparative method (2-ΔCT) using 18S as an internal control. For mtDNA analysis, total DNA was extracted with DNeasy blood and tissue kit (Qiagen). mtDNA was amplified using primers specific for the mitochondrial cytochrome c oxidase subunit 2 (COX2) gene and normalized to genomic DNA by amplification of the ribosomal protein s18 (rps18) nuclear gene. Primers were designed using the IDT software (IDT) and the primer sequences can be found in Table 1.

NAD+/NADH = NAD+/NADH ratio in primary myoblasts treated with pyruvate or lactate; conditions: primary WT myoblasts; 10 mM lactate 24 h
Description: as §1

HIF-1α = assay: Immunoblot of HIF-1α in primary WT myoblasts; conditions: 10 mM lactate 24 h
Description: as §1, with “To investigate the role of HIF-1α in genome asynchrony, PGC-1α/β KO primary myotubes were treated for 12 hours with 1 mM DMOG (Sigma) or 10 μM DFO (Sigma), 24 h after infection with empty vector of flag-SIRT1 adenovirus or after 12 h treatment with 500 mM NMN (Sigma).” left out
Protein extracts from tissue or C2C12 cells were obtained by lysis in ice-cold lysis buffer (150 mM NaCl, 10 mM Tris HCl (pH 7.4), 1 mM EDTA, 1 mM EGTA, 1% Triton X-100, 0.5% NP-40) supplemented with a cocktail of protease and phosphatase inhibitors (Roche). Protein content was determined by the Bradford protein assay (Biorad), and 50 μg proteins were run on SDS-PAGE under reducing conditions. […] The immunostaining was detected using horseradish peroxidase-conjugated anti-rabbit or anti-mouse immunoglobulin for 1 h at room temperature.

C2C12 myoblasts = assay: mtDNA content and ETC gene expression in C2C12 myoblasts; conditions: C2C12 cells; 10 μM EX-527 for 12 h
Description: C2C12 cell line (ATCC) was cultured in low glucose Dulbecco's modified eagle medium (DMEM) (Invitrogen) supplemented with 10% FBS (Invitrogen) and a mix of antibiotic and antimycotic (Invitrogen). To inhibit SIRT1, cells were treated the vehicle (0.001% DMSO) or 10 μM EX-527 (Tocris) for 12 h. C2C12 myoblasts were infected with an empty or SIRT1 adenovirus as described before (Gerhart-Hines et al., 2007) and the media was replaced with fresh DMEM for additional 48 h, after that the cells were treated as described before. To test the effects of hypoxia and HIFα stabilization in genome asyncrony, C2C12 myoblasts were exposed to 1% oxygen for 16 h or treated with the vehicle (0.001% DMSO) or DMOG (Cayman) for the same period of time.
as §2

CC(=O)N(O)CCCCCNC(=O)CCC(=O)N(O)CCCCCNC(=O)CCC(=O)N(O)CCCCCN [DFO, desferrioxamine]
effect on NMN-induced expression of mitochondrially-encoded ETC genes (PGC-1α/β KO myotubes; PGC-1α/β KO myotubes, NMN plus 1 mM DMOG or 10 μM DFO, 12 hours): completely abolished | effect on induction of mitochondrial ETC genes by SIRT1 overexpression (PGC-1α/β KO myotubes; PGC-1α/β knockout myotubes with SIRT1 adenovirus, 1 mM DMOG or 10 μM DFO): completely blocked

CC(O)C(=O)O (stereo not shown) [lactate]
NAD+/NADH ratio (NAD+/NADH): decreasing NAD^+/NADH ratio | HIF-1α protein stabilization (HIF-1α): induces HIF-1α protein stabilization

NC(=O)C1CCCc2c1[nH]c1ccc(Cl)cc21 (stereo not shown) [EX-527]
expression of nuclear- and mitochondrial-encoded genes (PGC-1α/β KO myotubes; PGC-1α/β KO myotubes reconstituted with PGC-1α T177A/S538A mutant): only the mitochondrial-encoded genes decreased | expression of nuclear- and mitochondrial-encoded genes (PGC-1α/β KO myotubes; PGC-1α/β KO myotubes reconstituted with WT PGC-1α): decreased both nuclear- and mitochondrial-encoded genes | genome asynchrony (C2C12 myoblasts): Genome asynchrony was induced
